# Literature values, collected in patent publication US20140271573A1, “PHARMACO-CELLULAR THERAPEUTIC METHOD FOR THE TREATMENT OF MUSCULAR DYSTROPHIES” (PONTIFICIA UNIVERSIDAD CATÓLICA DE CHILE, priority 2013, published 2014).
# Assays:
# dystrophin = conditions: cited from earlier work
# MES-13 cells = conditions: cited from earlier work
# [1] = 12 DMD patients, six-month period
Compound,clinical benefits in DMD patients (dystrophin; [1]),patients with dystrophin expression detected (dystrophin; [1]),"dystrophin expression in muscle fibers, of normal levels (dystrophin; mdx mice and humans) [%]","reduction of caspase-3, TGF-β1 and PAI-1, relative activity (MES-13 cells; MES-13 cells, AP2 compared with AP1)",phenotypes indicating diabetic nephropathy in MES-13 cells (MES-13 cells; MES-13 cells),antioxidant ability in a cellular environment (MES-13 cells),intracellular oxidative states (MES-13 cells; high glucose cultured MES-13 cells)
gentamicin,no clinical benefits were observed,6 of the 12,20,–,–,–,–
"C=C1CCC2C(C)(CO)C(O)CCC2(C)C1C=CC1=CCOC1=O (stereo not shown) [AP2, 14-deoxy-11,12-didehydroandrographolide]",–,–,–,potent activity than AP1,reduces,do not have antioxidant ability,reduced
